Measured values published in patent US20170129919A1, “CYCLIC DIPEPTIDE-CONTAINING COMPOSITION” (Suntory Holdings Limited, priority 2014, published 2017).
In brackets after ≈: the same amount, converted by molar mass.

What was measured:
xanthine oxidase (XO) [1] = assay: In vitro xanthine oxidase (XO) inhibiting action; type: biochemical; details: Table 1; PBS pH 7.5, xanthine substrate, absorbance at 295 nm after 30 minutes; mean±standard error; read-out: IC50 (Activity of Inhibiting XO of Tyr-Containing Cyclic Dipeptides)
Method: The in vitro xanthine oxidase (XO) inhibiting action was studied on 210 kinds of cyclic dipeptides, linear dipeptides Tyr-Gly and Gly-Tyr, and an amino acid Tyr. […] Thereafter, 20 μL of a 250 μM xanthine solution previously dissolved in the PBS was added thereto, and the absorbance after 30 minutes was measured using a spectrophotometer (Synegy HT, manufactured by Bio Tek). The XO inhibition rate (%) at each concentration was calculated by the following calculation formula, to obtain activities of inhibiting XO (IC50 values).

[2] = Stability of standard product in aqueous solution (LC-MS/MS content measurement); type: physicochemical
xanthine oxidase (XO) [3] = target: T1, xanthine oxidase (XO) (Mus musculus, UniProt Q00519); assay: XO activity in the liver and sera of hyperuricemic mice; type: in vivo, BALBc mice; details: 100 mg/kg orally
T1 construct: the collected supernatant was subjected to an assay for a xanthine oxidase (XO) activity; from tissue; host or cells: liver homogenate supernatant and serum of male BALBc mice (potassium oxonate hyperuricemia model)
T1 sequence (Q00519 whole entry): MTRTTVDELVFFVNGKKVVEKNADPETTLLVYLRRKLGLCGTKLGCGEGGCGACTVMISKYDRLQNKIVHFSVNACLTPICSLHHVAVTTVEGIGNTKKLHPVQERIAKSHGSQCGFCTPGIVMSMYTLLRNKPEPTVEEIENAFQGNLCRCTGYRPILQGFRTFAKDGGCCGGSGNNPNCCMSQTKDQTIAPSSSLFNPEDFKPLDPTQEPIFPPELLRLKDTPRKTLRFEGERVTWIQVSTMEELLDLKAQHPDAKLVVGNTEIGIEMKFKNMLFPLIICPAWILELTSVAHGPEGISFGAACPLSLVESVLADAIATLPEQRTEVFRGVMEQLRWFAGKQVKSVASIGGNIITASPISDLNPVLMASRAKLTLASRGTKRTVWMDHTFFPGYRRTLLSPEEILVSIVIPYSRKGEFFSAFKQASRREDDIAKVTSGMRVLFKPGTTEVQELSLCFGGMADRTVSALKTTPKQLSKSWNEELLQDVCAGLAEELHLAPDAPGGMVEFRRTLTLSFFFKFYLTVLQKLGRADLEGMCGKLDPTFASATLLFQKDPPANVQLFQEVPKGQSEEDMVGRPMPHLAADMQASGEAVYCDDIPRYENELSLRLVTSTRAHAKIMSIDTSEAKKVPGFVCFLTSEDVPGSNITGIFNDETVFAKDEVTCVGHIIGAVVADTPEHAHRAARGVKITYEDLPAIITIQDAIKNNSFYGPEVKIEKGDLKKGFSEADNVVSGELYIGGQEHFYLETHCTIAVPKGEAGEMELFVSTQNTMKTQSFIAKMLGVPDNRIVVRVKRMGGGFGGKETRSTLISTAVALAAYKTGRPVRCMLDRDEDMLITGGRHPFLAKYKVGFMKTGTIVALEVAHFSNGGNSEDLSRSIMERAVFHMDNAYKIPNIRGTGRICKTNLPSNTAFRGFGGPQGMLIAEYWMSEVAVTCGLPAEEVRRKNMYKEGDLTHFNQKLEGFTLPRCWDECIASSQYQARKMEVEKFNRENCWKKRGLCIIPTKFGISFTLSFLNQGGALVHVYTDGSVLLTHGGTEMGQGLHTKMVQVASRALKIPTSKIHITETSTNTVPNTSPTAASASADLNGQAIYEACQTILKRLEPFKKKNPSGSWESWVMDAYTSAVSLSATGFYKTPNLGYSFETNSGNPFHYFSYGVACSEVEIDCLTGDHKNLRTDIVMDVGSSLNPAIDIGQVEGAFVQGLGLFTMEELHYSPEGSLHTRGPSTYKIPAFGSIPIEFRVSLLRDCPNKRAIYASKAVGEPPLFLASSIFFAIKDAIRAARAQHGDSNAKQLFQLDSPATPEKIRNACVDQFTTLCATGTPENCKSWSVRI
Method: As to the animals used, male 7-week old BALBc mice were purchased from CLEA Japan, Inc., and subjected to an experiment after a one-week period of conditioning. […] During the period of conditioning, the mice were allowed to take a commercially available feed (CE-2, manufactured by CLEA Japan, Inc.) and distilled water ad libitum.
Next, the livers of mice were added to a mixture of an ice-cooled protease inhibitor cocktail and an EDTA-containing tissue protein extraction reagent (T-PER), homogenized, and then centrifuged at 15,000 rpm, at 4° C. for 15 minutes, and the collected supernatant was subjected to an assay for a xanthine oxidase (XO) activity. […]

hyperuricemic mice = assay: Action of lowering serum uric acid levels for hyperuricemic mice (potassium oxonate model); type: in vivo, BALBc mice; details: FIG. 2
Method: As to the animals used, male 7-week old BALBc mice were purchased from CLEA Japan, Inc., and subjected to an experiment after a one-week period of conditioning. The animals were bred in a breeding room with air-conditioning facilities (temperature: 23.5°±1.0° C., humidity: 55±10 RH %, the number of ventilation: 12 to 15 times/hour, illuminated: from 7:00 to 19:00 each day). During the period of conditioning, the mice were allowed to take a commercially available feed (CE-2, manufactured by CLEA Japan, Inc.) and distilled water ad libitum.
Oxonic acid is a substance that raises a blood uric acid level by inhibiting a urikase, a metabolic enzyme for uric acid. In view of the above, potassium oxonate (PO) was administered, thereby generating hyperuricemic model animals (see, Planta Med 2009; 75:302-306). Studies were made on the following 6 groups:
In all the groups that include PO administration, PO previously suspended in a 0.5% aqueous CMC-Na solution at 250 mg/kg was administered, and Normal Group was administered with a 0.5% aqueous CMC-Na solution, each being administered intraperitoneally. […] After 2 hours from the administration with PO, the blood was collected from the abdominal vena cava under anesthesia. After blood removal, the liver was harvested. The collected blood was allowed to stand at room temperature for 45 minutes, and centrifuged at 8,000 rpm for 10 minutes to recover sera. Here, the sera and the liver were preserved at −80° C. until the measurements were carried out.
The serum uric acid level was measured using 7180 Clinical Analyzer (manufactured by Hitachi Technologies).
The actions of lowering serum uric acid levels of soybean peptide heat-treated products were studied using hyperuricemic model animals, in the same manner as in Test Example 2. Concretely, the animals used were furnished in the same manner as in Test Example 2, and studies were made on the following 5 groups.
For each of the above-mentioned groups, the administration and the blood collection were carried out in the same manner as in Test Example 2 to measure a serum uric acid level. […]
Here, the heat-treated product of the soybean peptide obtained by dissolving a soybean peptide (Hinute AM, manufactured by FUJI OIL, CO., LTD.) in distilled water in a concentration of 200 mg/mL, heating to 132° C. for 3 hours, and lyophilizing the heated mixture was used. The content of the cyclic dipeptide of the soybean peptide heat-treated product was measured according to LC-MS/MS under the following conditions. […]

Solubility in water = type: physicochemical; details: Table 5
Method: Concretely, each compound was added to distilled water (manufactured by Otsuka Pharmaceutical Co., Ltd.) at an ambient temperature (25° C.) so as to have a final concentration of 5 mM, and the mixture was stirred under ultrasonication for 30 minutes to dissolve. […] However, none of the compounds dissolved, so that distilled water was further added thereto so as to have a final concentration of 0.01 mM, and the mixture was stirred under ultrasonication for 30 minutes, but still no compounds dissolved.

O=C1NC(Cc2ccc(O)cc2)C(=O)NC1CS (stereo not shown) [Cyclo(Tyr-Cys)]
IC50 (xanthine oxidase (XO) [1]): 77.2 ± 4.7 µM
stability of the standard product in an aqueous solution [2]: unstable in an aqueous solution

O=C1CNC(=O)C(Cc2ccc(O)cc2)N1 (stereo not shown) [Cyclo(Tyr-Gly), cyclotyrosylglycine]
xanthine oxidase activity in the sera (xanthine oxidase (XO) [3]; FIG. 3 lower panel): inhibited
xanthine oxidase activity in the liver (xanthine oxidase (XO) [3]; FIG. 3 upper panel): inhibited
serum uric acid level vs PO Group (hyperuricemic mice; 30 mg/kg orally): significant difference in effects on the PO Group
serum uric acid level vs PO Group (hyperuricemic mice; 100 mg/kg orally): significant difference in effects on the PO Group
action of lowering serum uric acid level, dose dependence (hyperuricemic mice; 10, 30, 100 mg/kg orally, 1 h after PO 250 mg/kg i.p., blood 2 hours after PO): action of lowering a uric acid level in a dose-dependent manner
IC50 (xanthine oxidase (XO) [1]): 49 ± 3 µM
solubility in water (in words) (Solubility in water): high solubility in water
solubility at 30 min (Solubility in water; distilled water, 25° C., ultrasonication 30 minutes, visual examination, tested at 5, 1, 0.1, 0.01 mM, insoluble = not dissolved at 0.01 mM): 1000 µM (≈ 220 µg/mL)
